Measured values: US20180369186A1, “METHOD FOR MODULATING AUTOPHAGY AND APPLICATIONS THEREOF” (JAWAHARLAL NEHRU CENTRE FOR ADVANCED SCIENTIFIC RESEARCH, priority 2015, published 2018)

What was measured:
[1] = tested on: Atg8 and Atg5; test: Co-localization of GFP-Atg8 and Atg5-RedStar in yeast; type: cell-based, S. cerevisiae
[2] = tested on: Atg8; test: Atg8 immunolocalization in lace plant; type: cell-based, Aponogeton madagascariensis; details: two hours; same modulator concentrations as MDC; control 0.90±0.08
Method: Whole leaves are treated for two hours prior to fixation in 100% Methanol at 37° C. and then hydrophilized to 20% methanol by adding distilled water at 60° C. every two minutes for 32 minutes. Samples are then sectioned and placed on a multiwall slide and allowed to air dry for 10 minutes to facilitate membrane permeabilization. Blocking is done for 30 minutes at 37° C. with 4% low fat milk powder in 1× microtubule stabilization buffer MTSB (Modified 2× MTSB stock solution: 15 g PIPES, 1.9 g EDTA, 1.22 g MgSO4*7H2O and 2.5 g KOH—pH 7.0). Primary antibody incubation for anti-rabbit ATG8 (Agrisera, AS14 2769) is done at a 1:1000 dilution in 1× MTSB for 30 minutes at 37° C. Samples are then washed for 5 minutes, 3 times with 1× MTSB. Secondary antibody incubation with Goat anti-rabbit Dylight 488 (Agrisera AS09 633) at a 1:2000 dilution in 1× MTSB is done for 30 minutes at 37° C. and then samples are rinsed as above. Tissues are mounted in Mowiol 4-88 solution (Sigma, 81381) and scanned via confocal microscopy as mentioned above. The mean number of puncta per cell is determined using maximum intensity projections (MIPs) for each replicate. The total number of cells within a field of view are counted manually and the number of puncta are counted automatically using ImageJ.

[3] = tested on: lysosome; test: Lysosomal function (lysotracker, LAMP1) in HeLa cells; type: cell-based, human
[4] = Rotarod test in MPTP mice; type: in vivo; details: 5 mg/kg
Method: (§1) All the behavioural experiments are done on 3-4 month old, male C57/B16 mice. Experimenters are blind to the drug injected animals. Experimenters handle mice used for behavioral experiments for 3 consecutive days prior to the training paradigm. Behavioral experiments are designed in an order of low to high stress activity for mice. Therefore, Open Field Test is conducted in forenoon while rotarod is performed in the afternoon.
(§2) Mice were habituated to the behaviour room for 15 minutes every day before start of experiments. The light intensity is maintained at 100 lux throughout the experiment. Mice are weighed every day before training or test to ensure their good health. Mice are randomly allocated into three treatment cohorts: placebo control, MPTP and 6-Bio. Data is plotted using GraphPad prism 5 software.
The rotarod instrument is custom made at the Mechanical workshop, National Centre of Biological Sciences, Bengaluru, India. The rotating rod (diameter 3.3 cm) is made of Delrin and is textured to enhance the grip of mice. The rod is fixed at a height of 30 cm from the cushioned platform where mice fell on to during training and test. The rod is partitioned into three areas of 9.3 cm distance between each partition using discs (40 cm diameter) made of Teflon. […] The entire trial is video recorded using a DSLR camera (Nikon D5100) and latencies are scored manually. […]

[5] = tested on: EGFP-α-synuclein; test: EGFP-α-synuclein degradation assay in SH-SY5Y cells; type: cell-based, human
Method: For EGFP-α-synuclein degradation assay, equal numbers of sub-confluent SH-SY5Y cells are seeded in 6 well dishes and allowed to attach for 24 h. Cells are transfected with EGFP-α-synuclein plasmid using Lipofectamine 2000 (Life technologies) and allowed to express for 24 h.
After treatments, cells are collected in Laemmli buffer to perform LC3 processing assay, P70S6K, GSK3β and 4E-BP1 immunoblotting. To validate EGFP-α-synuclein degradation by 6-Bio, treated cells are scraped and collected in growth medium. After washing with phosphate buffer, pellets are lysed in Laemmli buffer and boiled for 10 min.
Samples are electrophoresed on SDS-PAGE (8-15%) and then transferred onto PVDF (Bio-Rad) membrane using Transblot turbo (Bio-Rad). Transferred blots are stained with Ponceau S, probed with appropriate primary antibodies overnight and subsequently horseradish peroxidase conjugated secondary antibody. Signals are developed using enhanced chemiluminescence substrate (Clarity, Bio-Rad), imaged using a gel documentation system (G-Box, Syngene) and bands are quantified using image software (NIH). (FIGS. 4F and 5A)

[6] = Open field test in MPTP mice; type: in vivo; details: 5 mg/kg
Method: as §1, §2
Open field arena (50 cm×50 cm×45 cm) is custom-made (JNCASR) using plywood and the internal surface was coated with white polish. Mice are trained in open field for 2 consecutive days prior to drug injection. […] The activity is video recorded (SONY® color video camera, Model no. SSC-G118) using a software (SMART v3.0.04 from Panlah, Harvard Apparatus, USA). […] Distance travelled is analyzed offline by an experimenter who was not involved in performing the experiment.

SMILES	Atg5 punctate structures ([1]; vs single puncta in untreated cells)	co-localization between Atg8 and Atg5 dots ([1]; vs untreated cells)	mean number of Atg8 puncta per cell [2]	LAMP1 positive vesicle intensities and distribution [3]	lysotracker staining (lysosome acidification) ([3]; 2 h)	latency to fall, Co versus MPTP ([4]; MPTP+Co, day 13)	latency to fall, Post versus MPTP ([4]; administered after 48 h MPTP)	reduction of EGFP-α-synuclein levels ([5]; 5 μM, 24 h, versus untreated) [fold]	EGFP-α-synuclein levels on co-treatment with 3-MA ([5]; with 3-methyl adenine (5 mM))	distance travelled, Co versus MPTP ([6]; MPTP+Co, day 13)	distance travelled, Post versus MPTP ([6]; administered after 48 h MPTP)
Cc1ccc(S(=O)(=O)/C=C/C#N)cc1 [Bay11, 3-[(4-methylphenyl)sulfonyl]-(2E)-propenenitrile]	multiple puncta	significantly more co-localization	0.22±0.03	–	–	–	–	–	–	–	–
O=C1Nc2cc(Br)ccc2/C1=C1/Nc2ccccc2/C1=N\O [6-Bio, (2′Z,3′E)-6-Bromoindirubin-3′-oxime]	–	–	–	unaltered	no change in lysosome acidification	increased	not protected	~2	does not change	increased dramatically	not protected
